Assay results as given in the NIST ThermoML archive (doi:10.1016/j.jct.2012.11.002).

Conditions: Liquid, Vibrating tube method

CCCCOC(=O)C(C)O (stereo not given) [butyl 2-hydroxypropanoate]
mass density [kg/m3]
Conditions	100 kPa	2500 kPa	5000 kPa	7500 kPa	10000 kPa	20000 kPa	30000 kPa	40000 kPa	50000 kPa	60000 kPa
283.15 K	992.75	994.4	996.14	997.77	999.41	1005.87	1011.69	1017.42	1022.85	1027.71
288.15 K	987.86	989.52	991.32	993.09	994.7	1001.18	1007.12	1012.83	1018.14	1023.26
293.15 K	982.96	984.69	986.5	988.29	990.02	996.69	1002.96	1008.73	1014.33	1019.37
298.15 K	977.96	979.83	981.74	983.49	985.26	992.04	998.37	1004.29	1009.82	1015.17
303.15 K	973.09	974.98	976.81	978.72	980.54	987.67	993.96	1000.06	1005.69	1011.27
308.15 K	967.74	970.01	971.95	973.85	975.59	982.84	989.43	995.62	1001.41	1007.05
313.15 K	963.05	965.11	967.03	969.06	970.96	978.27	985.03	991.43	997.35	1002.99
318.15 K	957.98	960.06	962.11	964.16	966.04	973.62	980.42	986.96	993.12	998.83
323.15 K	952.44	954.61	956.73	958.74	960.79	968.64	975.86	982.37	988.47	994.3
328.15 K	947.31	949.44	951.63	953.79	955.86	963.73	971.08	977.8	984.21	990.17
333.15 K	942.28	944.52	946.72	948.91	951.02	959.28	966.7	973.8	980.2	986.43
338.15 K	937.09	939.39	941.78	943.99	946.05	954.42	962.07	969.19	975.64	982.05

COC(=O)C(C)O (stereo not given) [methyl 2-hydroxypropanoate]
mass density [kg/m3]
Conditions	100 kPa	2500 kPa	5000 kPa	7500 kPa	10000 kPa	20000 kPa	30000 kPa	40000 kPa	50000 kPa	60000 kPa
283.15 K	1104.41	1106	1107.57	1109.14	1110.68	1116.59	1122.23	1127.45	1132.48	1137.4
288.15 K	1098.86	1100.48	1102.13	1103.77	1105.31	1111.55	1117.27	1122.78	1127.98	1132.78
293.15 K	1093.31	1094.99	1096.72	1098.35	1099.92	1106.2	1112.08	1117.65	1122.93	1128.01
298.15 K	1087.76	1089.42	1091.21	1092.88	1094.57	1101.03	1107.23	1112.83	1118.24	1123.43
303.15 K	1082.13	1083.92	1085.75	1087.5	1089.23	1095.82	1101.97	1107.9	1113.44	1118.66
308.15 K	1076.53	1078.32	1080.19	1082	1083.79	1090.68	1097.03	1102.99	1108.63	1114.02
313.15 K	1070.85	1072.76	1074.65	1076.52	1078.39	1085.28	1091.84	1097.99	1103.74	1109.24
318.15 K	1065.11	1067.04	1068.97	1070.94	1072.77	1080.09	1086.77	1093.08	1098.93	1104.49
323.15 K	1059.39	1061.4	1063.43	1065.44	1067.34	1074.67	1081.41	1088	1094.04	1099.76
328.15 K	1053.63	1055.7	1057.77	1059.74	1061.8	1069.41	1076.5	1083.15	1089.4	1095.07
333.15 K	1047.83	1049.97	1052.16	1054.23	1056.23	1064.05	1071.33	1078.01	1084.39	1090.37
338.15 K	1042	1044.15	1046.35	1048.52	1050.63	1058.63	1066.13	1073.12	1079.74	1085.76

CCOC(=O)C(C)O (racemic) [DL-ethyl lactate]
mass density [kg/m3]
Conditions	100 kPa	2500 kPa	5000 kPa	7500 kPa	10000 kPa	20000 kPa	30000 kPa	40000 kPa	50000 kPa	60000 kPa
283.15 K	1045.06	1046.77	1048.51	1050.24	1051.88	1058.39	1064.45	1070.13	1075.5	1080.55
288.15 K	1039.64	1041.39	1043.21	1044.99	1046.74	1053.28	1059.46	1065.24	1070.74	1076.04
293.15 K	1034.25	1036.05	1037.86	1039.7	1041.5	1048.3	1054.58	1060.54	1066.26	1071.55
298.15 K	1028.78	1030.66	1032.56	1034.43	1036.23	1043.21	1049.76	1055.69	1061.53	1066.96
303.15 K	1023.32	1025.21	1027.24	1029.11	1031	1038.26	1044.91	1051.19	1056.95	1062.52
308.15 K	1017.84	1019.82	1021.87	1023.84	1025.7	1033.08	1039.92	1046.28	1052.19	1057.98
313.15 K	1012.33	1014.31	1016.42	1018.41	1020.39	1027.93	1034.97	1041.52	1047.69	1053.46
318.15 K	1006.72	1008.86	1011.01	1013.1	1015.13	1022.87	1030.04	1036.74	1042.96	1048.96
323.15 K	1001.23	1003.36	1005.56	1007.68	1009.78	1017.76	1025.13	1031.99	1038.42	1044.49
328.15 K	995.54	997.8	1000.11	1002.34	1004.46	1012.65	1020.17	1027.16	1033.75	1039.99
333.15 K	989.91	992.19	994.55	996.87	999.06	1007.62	1015.4	1022.5	1029.24	1035.71
338.15 K	984.3	986.71	989.18	991.49	993.65	1002.34	1010.27	1017.75	1024.55	1031.04
